Measured values as given in paper PMC5062570 (Nature Communications, 2016).
“Also recorded” adds a separate entry of the source. Read-outs that look alike come from different tables or passages of the source.

Columns and labels:
[1] = pKa determination by multiplexed capillary electrophoresis; format: physicochemical; conditions: aqueous buffers
How it was run: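 Effective mobility relative to a DMSO neutral marker was measured by multiplexed capillary electrophoresis with UV detection at 24 points across pH 1.7–11.2 in aqueous buffers. pKa was taken from ionization curves of mobility versus pH; method average absolute error 0.12.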

[2] = system: retinal pigment epithelium (RPE); experiment: Exploratory toxicology, ocular toxicity by retinal histology in rats; format: in vivo; conditions: 14 days; for Female ocular toxicity incidence (positive or negative animals / total evaluated) / Female ocular toxicity outcome / Male ocular toxicity incidence (positive or negative animals / total evaluated) / Male ocular toxicity outcome: rat; for Retinal finding by fluorescence microscopy: rats
[3] = biological target: BACE1 (Homo sapiens, UniProt P56817); experiment: BACE1 purified enzyme fluorescence polarization assay; format: biochemical; design: His (C); made in house; host or cells: CHO-K1; conditions: purified human enzyme, fluorescence polarization, peptide substrate
Protocol: Purified enzyme inhibition of BACE1, BACE2, CatD and CatE was determined using fluorescence polarization (FP) assays. Briefly, purified enzymes were treated with test compounds (1% DMSO, 37 °C) in the presence of synthetic peptide substrates (150 nM) in 30 μl total volume of NaOAc buffer (100 mM, pH 4.5, 0.0001% Tween-20) in a 384-well plate. After incubation, reactions were stopped and substrate captured by the addition of 1.5 μM streptavidin, and FP measured with an EnVision plate reader (PerkinElmer, excitation 485 nm, emission 530 nm). […] BACE2 activity was assessed with 0.5 nM recombinant BACE2 (R&D Systems 4097-AS) and the same synthetic substrate used for BACE1, with a 1 h incubation time. […] CatE activity was assessed with 1.0 nM recombinant CatE (Creative BioMart CTSE-255H) and the same synthetic substrate used for CatD, with a 1.5 h incubation time.

[4] = system: retinal pigment epithelium (RPE); experiment: Exploratory toxicology, ocular toxicity by retinal histology in dogs; format: in vivo; conditions: 14 days; for Female ocular toxicity incidence (positive or negative animals / total evaluated) / Female ocular toxicity outcome / Male ocular toxicity incidence (positive or negative animals / total evaluated) / Male ocular toxicity outcome: dog; for Retinal finding by fluorescence microscopy: dogs
Protocol: (§1) Naive […] beagle dogs (Canis lupus familiaris, >8 months old, n=1 male and n=1 female per group) received daily oral dosing of test compounds or vehicle for 14 days at the indicated concentrations. The doses were prepared in a solution of 0.5% methylcellulose and hydroxypropyl methylcellulose acetate succinate (high fine grade) and delivered in a volume of 5 ml kg^−1 per day. Blood samples for bioanalytical analysis were collected in K2EDTA tubes via jugular vessel. Plasma was isolated after centrifugation and stored at –20 °C before analysis. Animals were killed via intravenous administration of barbiturate followed by exsanguination ∼3 h after the final dose on day 15.

[5] = Plasma exposure (average unbound plasma concentration) in dogs; format: in vivo; conditions: both sexes, beagle, oral, dog, read-out: Avg Cp,u parent
Protocol: as §1
Plasma samples were analysed after protein precipitation by treating 20 μl of sample matrix with 200 μl of acetonitrile containing internal standard. All samples were centrifuged at 3,000 r.p.m. for 5 min. Then 100 μl of supernatant was transferred to a clean plate and evaporated to dryness under N2. Samples were reconstituted in 200 μl of 80:20 (v:v) acetonitrile:water. Samples were analysed on Waters Acquity UPLC connected to AB Sciex API5500 QTrap MS/MS.
Plasma protein binding was determined in the Rapid Equilibrium Device (RED, Thermo Scientific). […] Samples were protein-precipitated with acetonitrile containing internal standard, and the resulting supernatant was analysed by LC-MS/MS.

[6] = system: BACE2; conditions: purified aspartyl proteases; not previously disclosed
[7] = system: CatE; conditions: purified aspartyl proteases; not previously disclosed
[8] = system: aspartyl proteases (BACE2, cathepsin D, cathepsin E, pepsin and renin); conditions: assays with purified proteins; cited from earlier work
[9] = system: CatD; conditions: cited from earlier work
[10] = system: retinal pigment epithelium (RPE); experiment: Ocular toxicity, retinal histology in wild-type and BACE1 knockout mice; conditions: 80 mg kg-1 daily; for WT ocular toxicity incidence (positive or negative animals / total evaluated) / WT ocular toxicity outcome: wild-type mice
Protocol: All experiments and procedures involving animals were conducted as per the established guidelines and protocols that were reviewed and approved by the Pfizer Institutional Animal Care and Use Committee. […] Animals were housed at an Association for Assessment and Accreditation of Laboratory Animal Care International accredited facility in species-specific housing. Sample number was adequately powered for exploratory toxicology studies based on consistent internal practice. Clinically acceptable animals were selected for exploratory toxicology studies and assigned to groups using a computer-assisted randomization procedure based on body weights. For the fluorescent microscopic evaluation of the eyes, animals from the control group were initially evaluated in an unblinded fashion to provide the investigator an understanding of the baseline amount of autofluorescence typical for vehicle-treated animals in the study. A subsequent blinded evaluation of all animals in the study including controls was then performed to identify individuals that were outside the normal range established by the initial unblinded control group review.
After fixation for a minimum of 2 days, each eye was sectioned in half along the mid-sagittal plane with one half being embedded cut side down in a paraffin wax block and the other half returned to fixative. Paraffin blocks were sectioned at 4–5 μm using a microtome and the resulting sections were placed on glass slides, stained with H&E and coverslipped.

BACE1, sequence (P56817 46-457): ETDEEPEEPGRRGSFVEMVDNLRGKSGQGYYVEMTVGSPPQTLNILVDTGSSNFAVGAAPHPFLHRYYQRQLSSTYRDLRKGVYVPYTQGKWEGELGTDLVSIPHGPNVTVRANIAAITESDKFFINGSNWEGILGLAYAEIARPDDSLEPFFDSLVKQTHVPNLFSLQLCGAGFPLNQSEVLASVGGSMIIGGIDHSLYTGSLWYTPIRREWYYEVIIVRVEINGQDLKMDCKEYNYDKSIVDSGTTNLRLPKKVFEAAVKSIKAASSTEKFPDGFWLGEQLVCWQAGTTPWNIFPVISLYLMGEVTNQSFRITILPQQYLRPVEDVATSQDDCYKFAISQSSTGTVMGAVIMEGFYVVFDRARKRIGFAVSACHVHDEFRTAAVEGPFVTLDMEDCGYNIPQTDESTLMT

Cc1cc([C@H]2C[C@H]3[C@@H](CF)SC(N)=N[C@@]3(c3ccc(F)cc3F)CO2)on1 [PF-3195]
pKa [1]: 7.0
Female ocular toxicity incidence (positive or negative animals / total evaluated) ([2]; 15 mg kg-1 once daily): 3/3
Female ocular toxicity outcome ([2]; 15 mg kg-1 once daily): Neg (negative (neg) if there was no ocular abnormality observed)
Male ocular toxicity incidence (positive or negative animals / total evaluated) ([2]; 15 mg kg-1 once daily): 3/3
Male ocular toxicity outcome ([2]; 15 mg kg-1 once daily): Neg (negative (neg) if there was no ocular abnormality observed)
Female ocular toxicity incidence (positive or negative animals / total evaluated) ([2]; 40 mg kg-1 once daily): 3/3
Female ocular toxicity outcome ([2]; 40 mg kg-1 once daily): Neg (negative (neg) if there was no ocular abnormality observed)
Male ocular toxicity incidence (positive or negative animals / total evaluated) ([2]; 40 mg kg-1 once daily): 3/3
Male ocular toxicity outcome ([2]; 40 mg kg-1 once daily): Neg (negative (neg) if there was no ocular abnormality observed)
Female ocular toxicity incidence (positive or negative animals / total evaluated) ([2]; 90 mg kg-1 once daily): 2/3
Female ocular toxicity outcome ([2]; 90 mg kg-1 once daily): Pos
Male ocular toxicity incidence (positive or negative animals / total evaluated) ([2]; 90 mg kg-1 once daily): 1/3
Male ocular toxicity outcome ([2]; 90 mg kg-1 once daily): Pos
Female ocular toxicity incidence (positive or negative animals / total evaluated) ([2]; 200 mg kg-1 once daily): 2/3
Female ocular toxicity outcome ([2]; 200 mg kg-1 once daily): Pos
Male ocular toxicity incidence (positive or negative animals / total evaluated) ([2]; 200 mg kg-1 once daily): 3/3
Male ocular toxicity outcome ([2]; 200 mg kg-1 once daily): Pos
Retinal finding by fluorescence microscopy ([2]; 15 mg kg-1 or 40 mg kg-1 daily): no intermediate phenotype
Retinal finding by fluorescence microscopy ([2]; 90 mg kg-1 or 200 mg kg-1 daily): accumulated autofluorescent granules
IC50 [3]: 62 nM

Cc1cc([C@H]2C[C@H]3[C@@H](C)SC(N)=N[C@@]3(c3ccc(F)cc3F)CO2)on1 [PF-9283]
pKa [1]: 7.7
Female ocular toxicity incidence (positive or negative animals / total evaluated) ([2]; 30 mg kg-1 once daily): 1/3
Female ocular toxicity outcome ([2]; 30 mg kg-1 once daily): Pos
Male ocular toxicity incidence (positive or negative animals / total evaluated) ([2]; 30 mg kg-1 once daily): 3/3
Male ocular toxicity outcome ([2]; 30 mg kg-1 once daily): Neg (negative (neg) if there was no ocular abnormality observed)
Retinal finding by fluorescence microscopy ([2]; 80 mg kg-1 daily): accumulation of autofluorescent granules (AFG) in the RPE; also recorded: accumulated autofluorescent granules are visible
Female ocular toxicity incidence (positive or negative animals / total evaluated) ([4]; 3 mg kg-1 once daily): 1/1
Female ocular toxicity outcome ([4]; 3 mg kg-1 once daily): Neg (negative (neg) if there was no ocular abnormality observed)
Male ocular toxicity incidence (positive or negative animals / total evaluated) ([4]; 3 mg kg-1 once daily): 1/1
Male ocular toxicity outcome ([4]; 3 mg kg-1 once daily): Neg (negative (neg) if there was no ocular abnormality observed)
Female ocular toxicity incidence (positive or negative animals / total evaluated) ([4]; 9 mg kg-1 once daily): 1/1
Female ocular toxicity outcome ([4]; 9 mg kg-1 once daily): Neg (negative (neg) if there was no ocular abnormality observed)
Male ocular toxicity incidence (positive or negative animals / total evaluated) ([4]; 9 mg kg-1 once daily): 1/1
Male ocular toxicity outcome ([4]; 9 mg kg-1 once daily): Pos
Retinal finding by fluorescence microscopy ([4]; 3 mg kg-1 daily): not after 3 mg kg-1 dosing
Retinal finding by fluorescence microscopy ([4]; 9 mg kg-1 daily): accumulated autofluorescent
concentration at 14 days ([5]; 3 mg kg-1 once daily): 32 nM
concentration at 14 days ([5]; 9 mg kg-1 once daily): 401 nM
Fold selectivity for BACE1 over BACE2 [6]: 1.9 fold
Fold selectivity for BACE1 over CatE [7]: 320 fold
Selectivity for BACE1 over cathepsins D and E [8]: more than 200 fold
selectivity ratio [9]: 210
IC50 [3]: 74 nM
BACE1(-/-) ocular toxicity incidence (positive or negative animals / total evaluated) ([10]; BACE1(-/-) mice, 14 days): 4/5
BACE1(-/-) ocular toxicity outcome ([10]; BACE1(-/-) mice, 14 days): Pos
Retinal finding by fluorescence microscopy ([10]; BACE1(-/-) mice, 14 days): accumulated autofluorescent granules were observed
BACE1(-/-) ocular toxicity incidence (positive or negative animals / total evaluated) ([10]; BACE1(-/-) mice, 30 days): 6/6
BACE1(-/-) ocular toxicity outcome ([10]; BACE1(-/-) mice, 30 days): Pos
WT ocular toxicity incidence (positive or negative animals / total evaluated) ([10]; 2 days): 5/5
WT ocular toxicity outcome ([10]; 2 days): Neg
WT ocular toxicity incidence (positive or negative animals / total evaluated) ([10]; 4 days): 1/5
WT ocular toxicity outcome ([10]; 4 days): Pos
WT ocular toxicity incidence (positive or negative animals / total evaluated) ([10]; 7 days): 6/6
WT ocular toxicity outcome ([10]; 7 days): Pos
WT ocular toxicity incidence (positive or negative animals / total evaluated) ([10]; 14 days): 5/5
WT ocular toxicity outcome ([10]; 14 days): Pos
WT ocular toxicity incidence (positive or negative animals / total evaluated) ([10]; 30 days): 6/6
WT ocular toxicity outcome ([10]; 30 days): Pos
